Test results taken from patent US20240335464A1, “ADMINISTRATION OF STING AGONIST, CHECKPOINT INHIBITORS, AND RADIATION” (Takeda Pharmaceutical Company Limited, priority 2020, published 2024).

Tested on: EMT6 mouse breast carcinoma syngeneic tumor
Assay: Study 3: EMT6 orthotopic (mammary fat pad) syngeneic tumor model, time-to-progression analysis
Format: in vivo, female BALB/c mice
Protocol: Study 3: EMT6 is a mouse breast carcinoma cell line. EMT6 mouse syngeneic tumor model was generated by orthotopic inoculation with 1.0×10^6 EMT6 cells (cell suspension) in seven to eight week old female BALB/c mice (Envigo Corp., Indianapolis, IN) in the mammary fat pad. When the mean tumor volume reached approximately 110 mm^3, the animals were randomized into one vehicle control and eight treatment groups (n=8/group). Mice were then treated with Compound No. 14, anti-mouse PD-1 (anti-mPD-1) (clone RMP1-14), and/or three fraction doses of 8 Gy of Radiation (8 Gy×3), or the respective control agents (PBS, isotype control antibody, and/or mock radiation) in the following combinations over an 11-day period. • Group 1: vehicle (PBS)+isotype control+mock radiation • Group 2: Compound No. 14 (1 mg/kg)+isotype control+mock radiation • Group 3: Compound No. 14 (0.25 mg/kg)+isotype control+mock radiation • Group 4: vehicle+anti-mPD-1+mock radiation • Group 5: vehicle+isotype control+radiation (8 Gy×3) • Group 6: Compound No. 14 (1 mg/kg)+isotype control+radiation (8 Gy×3) • Group 7: vehicle+anti-mPD-1+radiation (8 Gy×3) • Group 8: Compound No. 14 (1 mg/kg)+anti-mPD-1+radiation (8 Gy×3) • Group 9: Compound No. 14 (0.25 mg/kg)+anti-mPD-1+radiation (8 Gy×3)
Tumor growth and body weight were measured three times per week during the treatment and post-treatment periods. Mice were humanely euthanized once they had reached their humane endpoint. Mice with complete regressions were evaluated until day 74 or day 108.
Study 3: A 0.1 mg/mL stock solution of Compound No. 14 was formulated in PBS and administered IV based on exact animal body weight on each day of treatment, using a dosing volume of 10 mL/kg body weight. Final doses received were 0.25 mg/kg or 1.0 mg/kg. Compound No. 14 was administered on a Q3D schedule for 3 doses (Days 12, 15 and 18) in single agent treatment group and in combination treatment groups. Dose formulation of Compound No. 14 was prepared once and utilized for all three dosing days.
Formulated anti-mPD-1 and isotype control were stored at 4 degree Celsius until subsequent dosing on Days 15 and 18. Anti-mPD-1 or isotype control was administered concurrent with Compound No. 14 or vehicle control on a Q3D schedule for 3 doses (Days 12, 15 and 18) in single agent treatment groups and in combination treatment groups.
Radiation treatment for Study 3 was performed using focal beam radiation with volumetric image guidance from computed tomography scans SARRP (Small Animal Radiation Research Platform) irradiator (Xstrahl Inc. Suwanee, Ga). Animals received 2.42 Gy/min of radiation and approximately 3.3 min was needed to reach 8 Gy dose delivery. Animals received 8 Gy radiation on days 8, 9 and 10, with the last radiation dose given two days prior to the initiation of dosing with Compound No. 14 and/or anti-mPD-1 or relevant controls on Day 12. Animals were anesthetized during imaging and radiation treatment using 1-2% Isoflurane. For repeated daily radiation treatments, the same treatment plan was applied and adjusted for changes in animal positioning or target alteration over time.
Tumors were measured three times weekly using vernier calipers. Tumor volumes were calculated using standard equation: V=W^2×L/2, where V=volume, W=width, and L=length for the tumor. When mean tumor volumes reached approximately 60 mm^3 for Study 1, 75 mm^3 for Study 2, and 110 mm^3 for Study 3, mice were randomized into eight groups (n=10/group) in Studies 1 and 2, and nine groups (n=8/group) in Study 3. These groups were then dosed with vehicle (PBS), Compound No. 14, Radiation, anti-mPD-1 or isotype control, or combinations of these agents as described in Tables 1a, 2a, and 3a. Tumor size and body weight were measured three times a week for the duration of each study. […]

How did the “Synergy Hazard Ratio (Weibull)” value (Combination Gr 6 [Compound No. 14 (1 mg/kg) + isotype control + radiation (8 Gy × 3)] vs Gr 2 and Gr 5) turn out when `Nc1ncnc2c1ncn2[C@@H]1O[C@@H]2COP(=O)(S)O[C@@H]3[C@H](O)[C@@H](COP(=O)(S)O[C@H]2[C@H]1F)O[C@H]3n1cc(F)c2c(=O)[nH]cnc21` (stereo partly shown) [Compound No. 14] was run?
The value was 0.00194.

What about the “Mice remaining on study beyond day 53” value (Gr 2: Compound No. 14 (1 mg/kg) + isotype control + mock radiation) of the same compound?
The value was “no mice”.

And the “HR (Weibull), time to progression, pairwise comparison to vehicle group (Gr 1)” value (shortened to “HR (Weibull), time to progression”) (Gr 2: Compound No. 14 (1 mg/kg) IV Q3D×3 + isotype control + mock radiation, TTP = tumor volume reaching 1000 mm^3)?
The value was 0.485.

What about the “HR (Weibull), time to progression” value (Gr 3: Compound No. 14 (0.25 mg/kg) IV Q3D×3 + isotype control + mock radiation) of the same compound?
Its value is 0.37.

And the “HR (Weibull), time to progression” value (Gr 6: Compound No. 14 (1 mg/kg) + isotype control + radiation (8 Gy×3))?
Its value is 0.00091.

And the “Mice remaining on study as tumor-free survivors at end of study (Day 108)” value (Group 6: Compound No. 14 (1 mg/kg) + isotype control + 8 Gy×3 Radiation, n=8/group)?
Its value is 5 mice.

What about the “Combination effect on TTP (synergy, in words)” value (Group 6: Compound No. 14 (1 mg/kg) and 8 Gy×3 Radiation with isotype control) of the same compound?
The value was “Statistically significant synergy”.
